Source: US7183287B2, “Substituted pyrimidinones” (Pharmacia Corporation, priority 2003, dated 2007)
pIC50: −log10 of the molar value.

Biological target: T1, human p38 kinase alpha (Homo sapiens, UniProt Q16539)
T1 construct: The coding region of the human p38a cDNA is obtained by PCR-amplification from RNA isolated from the human monocyte cell line THP.1; made in house; host or cells: E. coli DH10B (plasmid pMON 35802, pGEX 2T)
Assay: p38 kinase alpha in vitro assay (phosphorylation of PHAS-I with 32P-ATP or of EGFRP with 33P-ATP)
Type: biochemical
Protocol: The ability of compounds to inhibit human p38 kinase alpha is evaluated using two in vitro assay methods. In the first method, activated human p38 kinase alpha phosphorylates a biotinylated substrate, PHAS-I (phosphorylated heat and acid stable protein-insulin inducible), in the presence of gamma ^32P-ATP (^32P-ATP). PHAS-I is biotinylated prior to the assay and provides a means of capturing the substrate, which is phosphorylated during the assay. p38 Kinase is activated by MKK6. Compounds were tested in 10 fold serial dilutions over the range of 100 μM to 0.001 μM using 1% DMSO. Each concentration of inhibitor is tested in triplicate.
All reactions are carried out in 96 well polypropylene plates. Each reaction well contains 25 mM HEPES pH 7.5, 10 mM magnesium acetate and 50 μM unlabeled ATP. Activation of p38 is required to achieve sufficient signal in the assay. Biotinylated PHAS-I is used at 1–2 μg per 50 μl reaction volume, with a final concentration of 1.5 μM. Activated human p38 kinase alpha is used at 1 μg per 50 μl reaction volume representing a final concentration of 0.3 μM. Gamma ^32P-ATP is used to follow the phosphorylation of PHAS-I. ^32P-ATP has a specific activity of 3000 Ci/mmol and is used at 1.2 μCi per 50 μl reaction volume. The reaction proceeds either for one hour or overnight at 30° C.
Following incubation, 20 μl of reaction mixture is transferred to a high capacity streptavidin coated filter plate (SAM-streptavidin-matrix, Promega) prewetted with phosphate buffered saline. […] The plates are sealed and counted.
A second assay format is also employed that is based on p38 kinase alpha induced phosphorylation of EGFRP (epidermal growth factor receptor peptide, a 21 mer) in the presence ^33P-ATP. […] Compounds were evaluated in 50 μl reaction volumes in the presence of 25 mM Hepes pH 7.5, 10 mM magnesium acetate, 4% glycerol, 0.4% bovine serum albumin, 0.4 mM DTT, 50 μM unlabeled ATP, 25 μg EGFRP (200 μM), and 0.05 μCi ^33P-ATP. […] 150 μl of Microscint 40 is then added to each well of the Microlite plate, and the plate is sealed, mixed, and counted.

T1 sequence (Q16539 whole entry): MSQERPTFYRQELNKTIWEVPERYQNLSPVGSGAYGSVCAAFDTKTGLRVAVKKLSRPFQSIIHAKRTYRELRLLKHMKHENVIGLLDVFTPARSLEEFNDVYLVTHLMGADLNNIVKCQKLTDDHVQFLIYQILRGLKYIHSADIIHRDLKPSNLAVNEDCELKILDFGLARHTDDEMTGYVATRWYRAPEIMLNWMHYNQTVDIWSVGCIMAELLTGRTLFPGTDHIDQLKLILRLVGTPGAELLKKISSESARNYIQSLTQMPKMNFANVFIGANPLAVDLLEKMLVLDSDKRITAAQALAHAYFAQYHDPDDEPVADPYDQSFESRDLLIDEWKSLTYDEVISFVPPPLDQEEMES

Row | pIC50 | Compound
1 | > 5.30 | COC(=O)c1ccc(C)c(-n2c(C)nc(OCc3ccc(F)cc3F)c(Br)c2=O)c1
2 | > 5.30 | O=c1c(Br)c(OCc2ccccc2)ncn1Cc1ccccc1
3 | > 5.30 | CNC(=O)c1ccc(C)c(-n2c(C)nc(OCc3ccc(F)cc3F)c(Br)c2=O)c1
